Measurements reported in patent US10005768B2, “Carboxamide derivatives and use thereof” (Purdue Pharma L.P., priority 2013, dated 2018).

target: human Nav1.7 (Homo sapiens (Human), UniProt Q15858); experiment: FLIPR membrane potential dye assay (alternative fluorescence assay); assay type: cell-based; details: recombinant Nav1.7/HEK293 cells
Procedure: In vitro assays were performed in a recombinant cell line expressing cDNA encoding the alpha subunit (Nav1.7, SCN9a, PN1, NE) of human Nav1.7 (Accession No. NM_002977). The cell line was provided by investigators at Yale University (Cummins et al, J. Neurosci. 18(23): 9607-9619 (1998)). For dominant selection of the Nav1.7-expressing clones, the expression plasmid co-expressed the neomycin resistance gene. The cell line was constructed in the human embryonic kidney cell line, HEK293, under the influence of the CMV […] promoter, and stable clones were selected using limiting dilution cloning and antibiotic selection using the neomycin analogue, G418. Recombinant beta and gamma subunits were not introduced into this cell line. Additional cell lines expressing recombinant Nav1.7 cloned from other species can also be used, alone or in combination with various beta subunits, gamma subunits or chaperones.
A fluorescence indicator that can be used in alternative fluorescence assays is the blue version membrane potential dye (MDS, Molecular Devices, Sunnyvale, Calif.), a dye that detects changes in molecules following a change in membrane potential. An increase in fluorescence is expected if agonist stimulation provokes a change in membrane potential. Cells expressing Nav1.7 or other sodium channels are incubated with the membrane potential dye 30-60 minutes before the fluorescence assay. In the case of the KCl pre-stimulation version of the assay, the dye and all other components are washed out immediately before the assay, and the dye is then replaced. In the version lacking KCl pre-stimulation, the dye remains on the cells and is not washed out or replaced. The dye is stored in the dark as a lyophilized powder, and then an aliquot dissolved in assay buffer to form a 20×-concentrated stock solution that can be used for several weeks.
In the fluorescence assays, two agonists were used in combination, namely 1) veratridine; and 2) the venom from the yellow scorpion, Leiurus quinquestriatus hebraeus. Veratridine is an alkaloid small molecule that facilitates the capture of channel openings by inhibiting inactivation, and the scorpion venom is a natural preparation that includes peptide toxins selective for different subsets of voltage-gated sodium channels. These scorpion toxins inhibit the fast inactivation of their cognate target channels. Stock solutions of the agonists were prepared to 40 mM in DMSO (veratridine) and 1 mg/mL in dH2O (scorpion venom), and then diluted to make a 4× or 2× stock (depending on the particular assay) in assay buffer, the final concentration being 100 μM (veratridine) and 10 μg/mL (scorpion venom). Both of the agonists were purchased from Sigma Aldrich, St. Louis, Mo.
Test compounds were dissolved in DMSO to yield 10 mM stock solutions. The stock solutions were further diluted using DMSO in 1:3 serial dilution steps with 10 points (10,000 μM, […], 370 μM, 123 μM, 41 μM, 14 μM, 4.6 μM, 1.5 μM and 0.5 μM). The stock solutions were further diluted in assay buffer (1:125) as 4× stock serial dilutions with a DMSO concentration of 0.8% (final [DMSO], in the assay, from the compounds component=0.2%), so that the compounds' final concentrations in the assay were 20 μM, 6.7 μM, 2.2 μM, 0.74 μM, 0.25 μM and 0.08 μM, 0.03 μM, 0.01 μM, 0.003 μM and 0.001 μM. If a particular test article appeared to be especially potent, then the concentration curve was adjusted, e.g., to 10-fold lower concentrations, in order to perform the dose-response in a more relevant concentration range. Compound dilutions were added during the dye-loading and pre-stimulation step, and then again during the fluorescence assay, early in the kinetic read.
The data were analyzed according to methods known to those skilled in the art or using the GraphPad® Prism Program, version 4.0 or higher (available from GraphPad Software, San Diego, Calif.) to determine the IC50 value for the test article. […]

Sequence of human Nav1.7 (Q15858 other isoform, or with tags, fused parts or gaps): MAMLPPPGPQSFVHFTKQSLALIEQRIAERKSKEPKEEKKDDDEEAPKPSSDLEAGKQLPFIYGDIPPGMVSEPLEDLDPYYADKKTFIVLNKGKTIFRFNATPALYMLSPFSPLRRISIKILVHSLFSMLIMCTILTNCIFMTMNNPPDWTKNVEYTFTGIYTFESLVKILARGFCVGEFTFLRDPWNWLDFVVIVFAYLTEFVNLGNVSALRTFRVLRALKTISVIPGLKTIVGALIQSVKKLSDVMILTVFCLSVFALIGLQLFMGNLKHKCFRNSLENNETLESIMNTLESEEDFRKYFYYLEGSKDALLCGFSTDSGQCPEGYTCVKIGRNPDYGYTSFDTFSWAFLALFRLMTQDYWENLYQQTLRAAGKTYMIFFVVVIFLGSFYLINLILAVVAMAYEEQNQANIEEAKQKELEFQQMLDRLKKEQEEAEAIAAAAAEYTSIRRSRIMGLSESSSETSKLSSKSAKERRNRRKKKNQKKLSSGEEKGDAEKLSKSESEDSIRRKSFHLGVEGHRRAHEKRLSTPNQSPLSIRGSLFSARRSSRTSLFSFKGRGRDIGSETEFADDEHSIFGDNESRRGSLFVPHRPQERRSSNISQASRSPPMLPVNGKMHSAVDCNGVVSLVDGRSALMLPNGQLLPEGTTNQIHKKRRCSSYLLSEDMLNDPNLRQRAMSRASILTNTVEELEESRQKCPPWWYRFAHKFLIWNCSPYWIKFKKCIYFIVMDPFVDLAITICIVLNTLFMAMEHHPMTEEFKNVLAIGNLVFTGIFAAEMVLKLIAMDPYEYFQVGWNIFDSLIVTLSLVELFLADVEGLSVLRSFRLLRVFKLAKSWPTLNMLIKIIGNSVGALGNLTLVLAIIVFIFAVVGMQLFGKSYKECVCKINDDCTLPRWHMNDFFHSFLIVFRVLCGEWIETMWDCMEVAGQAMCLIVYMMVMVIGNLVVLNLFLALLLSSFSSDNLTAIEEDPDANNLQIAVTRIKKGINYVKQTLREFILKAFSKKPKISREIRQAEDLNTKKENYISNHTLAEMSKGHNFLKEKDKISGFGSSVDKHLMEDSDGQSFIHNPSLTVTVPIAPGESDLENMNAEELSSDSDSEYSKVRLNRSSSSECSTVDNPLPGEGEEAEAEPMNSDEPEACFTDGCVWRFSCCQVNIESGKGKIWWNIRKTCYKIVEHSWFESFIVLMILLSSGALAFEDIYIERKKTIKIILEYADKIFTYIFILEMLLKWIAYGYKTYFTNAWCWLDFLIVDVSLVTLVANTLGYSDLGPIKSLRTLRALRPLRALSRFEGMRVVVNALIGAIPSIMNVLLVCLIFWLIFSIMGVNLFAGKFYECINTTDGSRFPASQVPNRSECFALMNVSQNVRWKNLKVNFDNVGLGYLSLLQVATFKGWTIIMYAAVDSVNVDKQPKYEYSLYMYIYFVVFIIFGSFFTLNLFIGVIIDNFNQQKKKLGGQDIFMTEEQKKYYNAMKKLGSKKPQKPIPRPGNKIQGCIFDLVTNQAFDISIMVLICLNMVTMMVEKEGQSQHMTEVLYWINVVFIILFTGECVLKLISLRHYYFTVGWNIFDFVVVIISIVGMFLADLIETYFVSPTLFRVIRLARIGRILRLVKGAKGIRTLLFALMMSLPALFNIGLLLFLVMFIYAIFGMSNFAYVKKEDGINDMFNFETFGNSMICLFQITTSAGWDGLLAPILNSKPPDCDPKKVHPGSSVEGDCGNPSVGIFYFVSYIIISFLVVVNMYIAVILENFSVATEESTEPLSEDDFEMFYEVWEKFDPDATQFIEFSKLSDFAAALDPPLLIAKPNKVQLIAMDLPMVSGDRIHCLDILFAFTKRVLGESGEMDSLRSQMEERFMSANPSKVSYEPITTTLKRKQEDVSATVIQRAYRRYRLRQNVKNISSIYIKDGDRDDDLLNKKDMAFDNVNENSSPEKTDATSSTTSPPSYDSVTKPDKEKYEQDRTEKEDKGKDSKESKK

| Structure (SMILES) | IC50 |
| --- | --- |
| NC(=O)c1cc(C(=O)O)nc(-c2ccc(Oc3ccc(C(F)(F)F)cc3CN3CCOCC3)cc2)n1 [compound 132, 6-carbamoyl-2-(4-(2-(morpholinomethyl)-4-(trifluoromethyl)phenoxy)phenyl) pyrimidine-4-carboxylic acid] | 9.8 ± 0.365 µM |
| CCN(C)C(=O)c1cc(C(F)(F)F)ccc1Oc1ccc(-c2cccc([C@H](O)CO)n2)cc1 [compound 169, (S)-2-(4-(6-(1,2-dihydroxy-ethyl)pyridin-2-yl)phenoxy)-N-ethyl-N-methyl-5-(trifluoro-methyl)benzamide] | 1.55 ± 0.286 µM |
| O=C(NCc1nnn[nH]1)c1cc(C(F)(F)F)ccc1Oc1ccc(-c2cccc([C@H](O)CO)n2)cc1 [compound 176, (S)-N-((1H-tetrazol-5-yl)methyl)-2-(4-(6-(1,2-dihydroxyethyl)-pyridin-2-yl)phenoxy)-5-(trifluoromethyl)benzamide] | > 20 µM |
| C[C@H](Nc1cc(C(N)=O)nc(-c2ccc(Oc3ccccc3-c3ccnn3C)cc2)n1)C(N)=O [compound 139, (S)-6-((1-amino-1-oxopropan-2-yl)amino)-2-(4-(2-(1-methyl-1H-pyrazol-5-yl)phenoxy)phenyl)-pyrimidine-4-carboxamide] | 10 to 20 µM |
| CCN(CCO)C(=O)c1cc(C(F)(F)F)ccc1Oc1ccc(-c2cccc([C@H](O)CO)n2)cc1 [compound 171, (S)-2-(4-(6-(1,2-dihydroxyethyl)pyridin-2-yl)phenoxy)-N-ethyl-N-(2-hydroxyethyl)-5-(trifluoro-methyl)benzamide] | > 20 µM |
| CCN(CC)Cc1cc(C(F)(F)F)ccc1Oc1ccc(-c2nc(C(N)=O)cc(C(=O)O)n2)cc1 [compound 131, 6-carbamoyl-2-(4-(2-((diethylamino)methyl)-4-(trifluoromethyl)phenoxy)phenyl) pyrimidine-4-carboxylic acid] | > 20 µM |
| NC(=O)C1CCCN(C(=O)c2cc(C(F)(F)F)ccc2Oc2ccc(-c3cccc([C@H](O)CO)n3)cc2)C1 (stereo partly drawn) [compound 173, 1-(2-(4-(6-((S)-1,2-dihydroxyethyl)pyridin-2-yl)phenoxy)-5-(trifluoromethyl)benzoyl)piperidine-3-carboxamide] | > 20 µM |
| CCN(CCN(C)C)C(=O)c1cc(C(F)(F)F)ccc1Oc1ccc(-c2cccc([C@H](O)CO)n2)cc1 [compound 172, (S)-2-(4-(6-(1,2-dihydroxyethyl)pyridin-2-yl)phenoxy)-N-(2-(dimethyl-amino)ethyl)-N-ethyl-5-(trifluoromethyl)benzamide] | 7.97 ± 1.19 µM |
| O=C(NC[C@@H](O)CO)c1cc(C(F)(F)F)ccc1Oc1ccc(-c2cccc([C@H](O)CO)n2)cc1 [compound 167, 2-(4-(6-((S)-1,2-dihydroxyethyl)pyridin-2-yl)phenoxy)-N-((R)-2,3-dihydroxypropyl)-5-(trifluoromethyl)benzamide] | > 20 µM |
| O=C(c1cc(C(F)(F)F)ccc1Oc1ccc(-c2cccc([C@H](O)CO)n2)cc1)N1CC[C@H](O)C1 [compound 170, (2-(4-(6-((S)-1,2-dihydroxyethyl)pyridin-2-yl)phenoxy)-5-(trifluoromethyl)phenyl)((S)-3-hydroxypyrrolidin-1-yl)methanone] | > 20 µM |

Compounds with a lower IC50, results first:

| IC50 | Structure (SMILES) |
| --- | --- |
| 0.702 ± 0.035 µM | CN(C)c1cnc(-c2cc(C(F)(F)F)ccc2Oc2ccc(-c3nc(N[C@H]4CCNC4=O)cc(C(N)=O)n3)cc2)cn1 [compound 129, (S)-2-(4-(2-(5-(dimethylamino)pyrazin-2-yl)-4-(trifluoromethyl)phenoxy)phenyl)-6-((2-oxopyrrolidin-3-yl)amino)pyrimidine-4-carboxamide] |
| 0.519 ± 0.083 µM | CCN(CC)C(=O)c1cc(C(F)(F)F)ccc1Oc1ccc(-c2cccc([C@H](O)CO)n2)cc1 [compound 168, (S)-2-(4-(6-(1,2-dihydroxyethyl)pyridin-2-yl)phenoxy)-N,N-diethyl-5-(trifluoromethyl)benzamide] |
| 0.486 ± 0.032 µM | NC(=O)c1cc(CCn2ccnc2)nc(-c2ccc(Oc3ccc(C(F)(F)F)cc3CN3CCOCC3)cc2)n1 [compound 127, 6-(2-(1H-imidazol-1-yl)ethyl)-2-(4-(2-(morpholinomethyl)-4-(trifluoromethyl)phenoxy)phenyl) pyrimidine-4-carboxamide] |
| 0.367 ± 0.028 µM | CCN(CC)Cc1cc(C(F)(F)F)ccc1Oc1ccc(-c2nc(CCOC(C)=O)cc(C(N)=O)n2)cc1 [compound 124, 2-(6-carbmoyl-2-(4-(2-((diethylamino)methyl)-4-(trifluoromethyl)phenoxy)phenyl)pyrimidin-4-yl)ethyl acetate] |
| 0.45 ± 0.053 µM | Cn1nccc1-c1cc(Cl)ccc1Oc1ccc(-c2nc(N[C@H]3CCNC3=O)cc(C(N)=O)n2)cc1 [compound 141, (S)-2-(4-(4-chloro-2-(1-methyl-1H-pyrazol-5-yl)phenoxy)phenyl)-6-((2-oxopyrrolidin-3-yl)amino)-pyrimidine-4-carboxamide] |
| 0.294 ± 0.054 µM | Cn1nccc1-c1cc(C(F)(F)F)ccc1Oc1ccc(-c2cc([C@H](O)CO)cc(C(N)=O)n2)cc1 [compound 135, (S)-4-(1,2-dihydroxythyl)-6-(4-(2-(1-methyl-1H-pyrazol-5-yl)-4-(trifluoromethyl)phenoxy)phenyl) picolinamide] |
| 0.311 ± 0.006 µM | Cn1nccc1-c1cc(C(F)(F)F)ccc1Oc1ccc(-c2nccc(C(N)=O)n2)cc1 [compound 125, 2-(4-(2-(1-methyl-1H-pyrazol-5-yl)-4-(trifluoromethyl)phenoxy)phenyl) pyrimidine-4-carboxamide] |
| 0.684 ± 0.034 µM | CN(C)c1ncc(-c2cc(C(F)(F)F)ccc2Oc2ccc(-c3nc(N[C@H]4CCNC4=O)cc(C(N)=O)n3)cc2)cn1 [compound 128, (S)-2-(4-(2-(2-(dimethylamino)pyrimidin-5-yl)-4-(trifluoromethyl)phenoxy)phenyl)-6-((2-oxopyrrolidin-3-yl)amino)pyrimidine-4-carboxamide] |
| 0.288 ± 0.045 µM | Cn1nccc1-c1cc(C(F)(F)F)ccc1Oc1ccc(-c2nc(N[C@H]3CCNC3=O)cc(C(N)=O)n2)cc1 [compound 126, (S)-2-(4-(2-(1-methyl-1H-pyrazol-5-yl)-4-(trifluoromethyl)phenoxy)phenyl)-6-((2-oxopyrrolidin-3-yl)amino)pyrimidine-4-carboxamide] |
